Test results: the supplement of paper PMC13380429

Assays:
Details in all cases: 72 h
[1] = system: U2OS; test: relative viability EC50 (midpoint between 100% and the lowest measured viability); higher = less toxic
[2] = system: Calu-3; test: as above
[3] = system: Caco-2; test: as above
[4] = system: HepG2; test: as above
[5] = system: Vero E6; test: as above
[6] = system: U2OS; test: cell viability relative to DMSO; higher = less toxic
[7] = system: Calu-3; test: as above
[8] = system: Caco-2; test: as above
[9] = system: HepG2; test: as above
[10] = system: Vero E6; test: as above
[11] = system: U2OS; test: drug sensitivity score (DSS) for viability; higher = more toxic; extreme values may be limits of the assay
[12] = system: Calu-3; test: as above
[13] = system: Caco-2; test: as above
[14] = system: HepG2; test: as above
[15] = system: Vero E6; test: as above

Compound	relative viability EC50 [1]	relative viability EC50 [2]	relative viability EC50 [3]	relative viability EC50 [4]	relative viability EC50 [5]	cell viability ([6]; 1 nM)	cell viability ([6]; 10 nM)	cell viability ([6]; 100 nM)	cell viability ([6]; 1000 nM)	cell viability ([6]; 10000 nM)	cell viability ([7]; 1 nM)	cell viability ([7]; 10 nM)	cell viability ([7]; 100 nM)	cell viability ([7]; 1000 nM)	cell viability ([7]; 10000 nM)	cell viability ([8]; 1 nM)	cell viability ([8]; 10 nM)	cell viability ([8]; 100 nM)	cell viability ([8]; 1000 nM)	cell viability ([8]; 10000 nM)	cell viability ([9]; 1 nM)	cell viability ([9]; 10 nM)	cell viability ([9]; 100 nM)	cell viability ([9]; 1000 nM)	cell viability ([9]; 10000 nM)	cell viability ([10]; 1 nM)	cell viability ([10]; 10 nM)	cell viability ([10]; 100 nM)	cell viability ([10]; 1000 nM)	cell viability ([10]; 10000 nM)	drug sensitivity score [11]	drug sensitivity score [12]	drug sensitivity score [13]	drug sensitivity score [14]	drug sensitivity score [15]
O=C(NCc1ccc(F)cc1)N1CCN2C(=O)OC(c3ccccc3)(c3ccccc3)[C@@H]2C1 (racemic) [SHA-68]	> 10 µM	> 10 µM	> 10 µM	> 10 µM	> 10 µM	101%	95.6%	100%	96.6%	96.8%	99.7%	110%	104%	100%	97.2%	101%	101%	89.1%	93.6%	85%	100%	102%	98%	107%	110%	97.1%	96.8%	98.3%	102%	100%	0	0	0.5	0	0
O=c1c(-c2ccc(O)cc2)coc2cc(O)cc(O)c12 [genistein]	> 10 µM	> 10 µM	> 10 µM	> 10 µM	> 10 µM	93.9%	98.8%	87.1%	87%	95.4%	96.4%	91.5%	98.1%	103%	82.9%	102%	96.6%	105%	97%	90.3%	95.2%	89.9%	95.9%	102%	82.6%	102%	108%	108%	96.1%	97.2%	0	0.3	0	0.3	0
CC(=O)c1ccc2c(c1)N(CCCN(C)C)c1ccccc1S2 [acepromazine]	> 10 µM	> 10 µM	> 10 µM	> 10 µM	> 10 µM	101%	95%	100%	93.9%	95.7%	111%	102%	92.9%	96.1%	83.5%	104%	93.1%	99.6%	86.4%	102%	98.3%	96.4%	101%	91.9%	94.7%	101%	101%	99.4%	99.4%	89.2%	0	0.3	0	0	0
O=C(O)C[C@H]1CC[C@H](c2ccc(NC(=O)c3nnc(Nc4ccc(F)c(F)c4)o3)cc2)CC1 [AZD3988]	> 10 µM	> 10 µM	> 10 µM	> 10 µM	> 10 µM	99.7%	98.8%	97.2%	103%	94.7%	104%	104%	97.6%	108%	100%	99%	104%	96.6%	100%	87.9%	110%	105%	103%	93%	102%	97.9%	97.4%	95.2%	95.3%	101%	0	0	0	0	0
COc1cc(N2CCC(N)CC2)ccc1Nc1ncc(Cl)c(-c2c[nH]c3ccccc23)n1 [AZD3463]	1.39 µM	1.73 µM	0.923 µM	0.402 µM	2.08 µM	93.5%	101%	95.1%	69.2%	2.6%	97.2%	88.9%	95.1%	81.8%	9.4%	103%	98.2%	99.6%	64.3%	34.9%	102%	102%	78.1%	41.6%	12.7%	104%	100%	102%	87.1%	4.5%	9.6	8	8	13.6	7.4
CNCC(=O)O [sarcosine]	> 10 µM	> 10 µM	> 10 µM	> 10 µM	> 10 µM	96.1%	99.2%	99.1%	96%	107%	92.9%	98.5%	96.7%	89.6%	97.7%	93.3%	93.4%	95.5%	102%	110%	112%	110%	88.4%	106%	107%	93.4%	97.8%	90.4%	103%	112%	0	0	0	0	0
O=C1N=C2SCCN2C(=O)C1Cc1ccc(Cl)cc1 (stereo not given) [nuclomedone]	> 10 µM	> 10 µM	> 10 µM	> 10 µM	> 10 µM	98.4%	97.6%	95.6%	95.6%	96.4%	91.5%	104%	95.5%	99.9%	90.5%	93.1%	96.5%	91.9%	92.2%	94.9%	93.7%	89.1%	95.3%	96.4%	92%	96.9%	95.5%	95.1%	104%	93.4%	0	0	0	0	0
Cc1c(N)c(=O)n(-c2ccccc2)n1C [ampyrone]	> 10 µM	> 10 µM	> 10 µM	> 10 µM	> 10 µM	97.6%	94.3%	100%	95.8%	102%	138%	99.9%	98.6%	96.4%	98.6%	103%	92%	100%	96.7%	95%	96.5%	110%	105%	111%	106%	101%	104%	99.2%	95.4%	90.5%	0	0	0	0	0
CCN(C)C(=O)Oc1cccc([C@H](C)N(C)C)c1 [rivastigmine]	> 10 µM	> 10 µM	> 10 µM	> 10 µM	> 10 µM	95.8%	99.2%	99.9%	98.7%	103%	93.5%	95%	101%	98.3%	94.4%	109%	95.5%	104%	96.7%	95.8%	113%	102%	98%	106%	98.2%	101%	106%	103%	106%	97.6%	0	0	0	0	0
CC[C@@]1(O)C(=O)OCc2c1cc1n(c2=O)Cc2cc3c(CN(C)C)c(O)ccc3nc2-1 [topotecan]	1.16 µM	0.38 µM	0.748 µM	0.0757 µM	0.756 µM	101%	107%	97.9%	60.6%	5.9%	111%	102%	77.3%	47.2%	20.1%	97.7%	92.8%	83.3%	58.6%	16.2%	110%	70.3%	48.6%	18.8%	1.4%	102%	97.3%	95.1%	65.1%	39.8%	10.2	12.6	10.4	23.6	7.5
CC(=O)N(C)c1cccc(-c2ccnc3c(C(=O)c4cccs4)cnn23)c1 [indiplon]	> 10 µM	> 10 µM	> 10 µM	> 10 µM	> 10 µM	112%	99.4%	101%	96.5%	100%	99.4%	98.2%	91.6%	96.3%	101%	100%	92.6%	93.5%	103%	92.1%	100%	103%	97.3%	96.7%	77.3%	105%	102%	97.1%	107%	91.3%	0	0	0	1.3	0
